# Laboratory results published in patent US20230295571A1, “COMPOSITIONS AND METHODS FOR STEM CELL CHONDROGENESIS” (Washington University, priority 2020, published 2023).
# Entries after “also recorded” stand apart in the source; their conditions may differ.
# Legend:
# Format in all cases: cell-based, human
# [1] = system: hiPSC chondrogenic pellets; experiment: RNA-FISH of d28 pellets for WNT3A, WNT4 and COL2A1; conditions: d28 pellets vs TGF-β3-treated
# Procedure: RNA fluorescence in situ hybridization (RNA-FISH). […] Pellets were cryo-sectioned at 10 μm thick and fixed using 4% paraformaldehyde in PBS on ice for 10 min. Sample pre-treatment and RNA probe hybridization, amplification, and signal development were performed using the RNAscope Multiplex Fluorescent Reagent Kit v1 (Advanced Cell Diagnostics, #320850) following the manufacturer's instruction. Samples were imaged with multichannel confocal microscopy (Zeiss LSM 880). Tiled images with Z-stacks were taken at 20× magnification to capture the entire pellet. Maximum intensity projection, a process in which the brightest pixel (voxel) in each layer along Z direction is projected in the final 2D image, was performed using Zeiss Zen Blue (version 2.5).
# [2] = system: hiPSC chondrogenic pellets; experiment: Immunohistochemistry of collagens in pellets; conditions: pellet culture
# Procedure: WNT ligands treatment during chondrogenesis. For WNT ligands treatment during chondrogenesis, pellets were treated with either 10 ng ml^−1 TGF-β3 (control group) or a combination of 10 ng ml^−1 TGF-β3 and 100 ng ml^−1 individual WNT ligand (WNT2B, WNT3A, WNT4, WNT5B, or WNT7B, all from R&D system) in chondrogenic medium from d0 to d42 as appropriate. For WNT ligands treatment during the Cp stage, cells were supplemented with either 20 ng ml^−1 BMP4 (R&D Systems, #314-BP-010) alone (control group), a combination of 20 ng ml^−1 BMP4 and 1 μM WNT-059, or a combination of 20 ng ml^−1 BMP4 and 100 ng ml^−1 WNT3A (R&D Systems, #5036-WN-010) in mesodermal differentiation medium from d7 to d12.
# Immunohistochemistry. Histologic sections (8 μm thick) of the pellets were rinsed with xylenes three times and rehydrated before labeling. Antigen retrieval was performed with 0.02% proteinase K for 3 min at 37° C. for COL2A1 and COL6A1 and with pepsin for 5 min at room temperature for COL1A1 and COL10A1 followed by peroxidase quench then serum blocking for 30 min at room temperature. […]
# [3] = system: hiPSC chondrogenic pellets; experiment: Safranin-O histology of hiPSC chondrogenic pellets
# Procedure: Chondrogenic differentiation. Cells dissociated at the Cp stage were resuspended at 5×10^5 cells per mL in chondrogenic medium consisting of DMEM/F-12, 1% FBS, 1% ITS+, 55 μM β-mertcaptoethanol, 100 nM dexamethasone (DEX; Sigma-Aldrich, #D4902), 1% NEAA (Gibco, #11140050), 1% P/S, 10 ng ml^−1 human transforming growth factor-beta 3 (TGF-β3; R&D Systems, #243-B3-010), 50 μg ml^−1 L-ascorbic acid 2-phosphate (ascorbate; Sigma-Aldrich, #A8960), and 40 μg ml^−1 L-Proline (proline; Sigma-Aldrich, #P5607). Cells were then centrifuged for 5 min at 300×g to form a pellet. Chondrogenic pellets were cultured at 37° C. for up to the timepoints required for various experiments.
# WNT-C59 and ML329 treatment for WNT and MITF inhibition. For WNT-C59 treatment for WNT inhibition during chondrogenesis, pellets were treated with either 10 ng ml^−1 TGF-β3 (control group) or a combination of 10 ng ml^−1 TGF-β3 and 1 μM WNT-C59 in a chondrogenic medium from d0 to d42 as appropriate. For WNT-C59 and ML329 treatment (ML, Axon Medchem, HY-101464) for WNT and MITF inhibition during chondrogenesis, pellets were treated with either 10 ng ml^−1 TGF-β3 (control group), a combination of 10 ng ml^−1 TGF-β3 and 1 μM ML, a combination of 10 ng ml^−1 TGF-β3 and 1 μM WNT-C59, or a combination of 10 ng ml^−1 TGF-β3, 1 μM ML and 1 μM WNT-C59 in chondrogenic medium from d0 to d42 as appropriate. […]
compound,measurement,setting,value
Cc1cc(-c2ccc(CC(=O)Nc3ccc(-c4cccnc4)cc3)cc2)ccn1 [WNT-C59],COL2A1 RNA-FISH labeling,[1],more homogenous distribution; also recorded: increased
same,WNT3A and WNT4 expression (RNA-FISH),[1],decreased
same,COL1A1 and COL10A1 staining/production,[2],low
same,chondrogenesis when WNTs inhibited at the Cp stage,[3]; WNT-C59 at Cp stage,severely impaired
same,chondrocyte homogeneity (Saf-O staining),"[3]; treatment during pellet culture, vs standard TGF-β3",increased
